Our source for the IC50, Ratio IC50 and inhibition values is ChEMBL document CHEMBL3745697, “Identification of azabenzimidazoles as potent JAK1 selective inhibitors” (Bioorg Med Chem Lett, 2016).

The target in experiment [1] is T1, Tyrosine-protein kinase JAK1 (Homo sapiens, UniProt P23458). Nature of the experiment: Inhibition of N-terminal GST-fused human recombinant JAK1 (866 to 1154 residues) expressed in insect cells using FITC-C6-KKHTDDGYMPMSPGVA-NH2 as substrate by microfluidic capillary electrophoresis method.
Experiment [2] addresses T2, Tyrosine-protein kinase JAK2 (Homo sapiens, UniProt O60674). Nature of the experiment: Inhibition of N-terminal GST-fused recombinant JAK2 (831 to 1132 residues) (unknown origin) expressed in insect cells using 5FAM-GEEPLYWSFPAKKK-NH2 as substrate by microfluidic capillary electrophoresis method.
Experiment [3] addresses T3, Tyrosine-protein kinase JAK3 (Homo sapiens, UniProt P52333).
T3 sequence (P52333 whole entry): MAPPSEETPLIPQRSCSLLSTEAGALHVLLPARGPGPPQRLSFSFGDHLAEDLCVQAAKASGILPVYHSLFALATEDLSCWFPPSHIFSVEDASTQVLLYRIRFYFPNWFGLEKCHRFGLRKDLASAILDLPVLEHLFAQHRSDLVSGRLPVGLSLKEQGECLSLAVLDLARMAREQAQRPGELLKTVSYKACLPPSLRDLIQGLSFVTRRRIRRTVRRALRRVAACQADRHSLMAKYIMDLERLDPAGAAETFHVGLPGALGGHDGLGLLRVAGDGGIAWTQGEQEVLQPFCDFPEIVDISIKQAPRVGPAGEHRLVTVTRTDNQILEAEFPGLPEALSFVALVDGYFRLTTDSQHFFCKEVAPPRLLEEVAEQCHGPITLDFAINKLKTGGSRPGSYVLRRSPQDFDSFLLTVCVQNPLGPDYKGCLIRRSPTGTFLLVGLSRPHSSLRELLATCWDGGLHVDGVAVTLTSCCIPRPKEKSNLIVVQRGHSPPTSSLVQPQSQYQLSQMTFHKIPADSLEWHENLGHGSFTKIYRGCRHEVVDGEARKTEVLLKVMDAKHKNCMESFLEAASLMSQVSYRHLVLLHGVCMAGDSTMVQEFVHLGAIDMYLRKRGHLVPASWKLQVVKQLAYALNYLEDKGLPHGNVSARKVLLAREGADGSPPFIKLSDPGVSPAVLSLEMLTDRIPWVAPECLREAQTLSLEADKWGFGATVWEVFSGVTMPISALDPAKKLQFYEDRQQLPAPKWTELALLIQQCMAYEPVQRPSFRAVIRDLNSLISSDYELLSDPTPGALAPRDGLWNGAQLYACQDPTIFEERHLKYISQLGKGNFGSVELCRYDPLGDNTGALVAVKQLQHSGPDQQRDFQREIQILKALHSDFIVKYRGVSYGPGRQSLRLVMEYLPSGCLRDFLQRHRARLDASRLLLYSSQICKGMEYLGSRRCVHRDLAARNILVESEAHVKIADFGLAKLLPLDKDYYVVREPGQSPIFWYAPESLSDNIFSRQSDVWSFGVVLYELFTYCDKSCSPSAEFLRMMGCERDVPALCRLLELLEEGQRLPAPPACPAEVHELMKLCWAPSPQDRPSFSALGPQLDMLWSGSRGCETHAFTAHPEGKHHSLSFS
Nature of the experiment: Inhibition of N-terminal GST-fused recombinant JAK3 (781 to 1124 residues) (unknown origin) expressed in insect cells using 5FAM-GEEPLYWSFPAKKK-NH2 as substrate by microfluidic capillary electrophoresis method.

The species named for experiment [4] is Homo sapiens. Nature of the experiment: Selectivity ratio of IC50 for N-terminal GST-fused recombinant JAK2 (831 to 1132 residues) (unknown origin) to N-terminal GST-fused human recombinant JAK1 (866 to 1154 residues).
Experiment [5] has as its target T1, Tyrosine-protein kinase JAK1. The experiment can be described thus: Inhibition of JAK1 in human NCI-H1975 cells assessed as reduction in STAT3 phosphorylation after 2 hrs. Format: cell-based.
Experiment [6] addresses T2, Tyrosine-protein kinase JAK2. The experiment can be described thus: Inhibition of JAK2 in human HEL 92.1.7 cells assessed as reduction in STAT5 phosphorylation after 2 hrs by Western blot analysis. Format: cell-based.
The target of experiment [7] is T1, Tyrosine-protein kinase JAK1. The experiment can be described thus: Inhibition of JAK1 in human NCI-H1975 cells assessed as reduction in STAT3 phosphorylation at 0.003 to 3 uM after 2 hrs by Western blot analysis. In kind it is cell-based. On the technique in general: A western blot detects proteins with antibodies after separation by electrophoresis.
The target of experiment [8] is Non-receptor tyrosine-protein kinase TYK2 (Homo sapiens, UniProt P29597). Nature of the experiment: Inhibition of N-terminal 6His-tagged human recombinant Tyk2.
Experiment [9] concerns the target Cyclin-dependent kinase 2/cyclin E1 (Homo sapiens, UniProt P24941). The experiment can be described thus: Inhibition of N-terminal 6His-tagged human recombinant full length CDK2 (1 to 304 residues)/Cyclin E1 (1 to 410 residues) expressed in insect cells using FL-Ahx-QSPKKG-CONH2 as substrate by microfluidic capillary electrophoresis method.
Experiment [10] concerns the target Aurora kinase B (Homo sapiens, UniProt Q96GD4). The experiment can be described thus: Inhibition of GST-INCENP activated N-terminal 6His-tagged human recombinant full length Aurora B (1 to 344 residues) expressed in baculovirus expression system using 5FAM-LRRASLG as substrate by microfluidic capillary electrophoresis method.

Active and inactive are the calls of the source. The rule behind the calls is not given here. Some results are limits rather than exact numbers.

T1 sequence (P23458 whole entry, the tested form may be a part): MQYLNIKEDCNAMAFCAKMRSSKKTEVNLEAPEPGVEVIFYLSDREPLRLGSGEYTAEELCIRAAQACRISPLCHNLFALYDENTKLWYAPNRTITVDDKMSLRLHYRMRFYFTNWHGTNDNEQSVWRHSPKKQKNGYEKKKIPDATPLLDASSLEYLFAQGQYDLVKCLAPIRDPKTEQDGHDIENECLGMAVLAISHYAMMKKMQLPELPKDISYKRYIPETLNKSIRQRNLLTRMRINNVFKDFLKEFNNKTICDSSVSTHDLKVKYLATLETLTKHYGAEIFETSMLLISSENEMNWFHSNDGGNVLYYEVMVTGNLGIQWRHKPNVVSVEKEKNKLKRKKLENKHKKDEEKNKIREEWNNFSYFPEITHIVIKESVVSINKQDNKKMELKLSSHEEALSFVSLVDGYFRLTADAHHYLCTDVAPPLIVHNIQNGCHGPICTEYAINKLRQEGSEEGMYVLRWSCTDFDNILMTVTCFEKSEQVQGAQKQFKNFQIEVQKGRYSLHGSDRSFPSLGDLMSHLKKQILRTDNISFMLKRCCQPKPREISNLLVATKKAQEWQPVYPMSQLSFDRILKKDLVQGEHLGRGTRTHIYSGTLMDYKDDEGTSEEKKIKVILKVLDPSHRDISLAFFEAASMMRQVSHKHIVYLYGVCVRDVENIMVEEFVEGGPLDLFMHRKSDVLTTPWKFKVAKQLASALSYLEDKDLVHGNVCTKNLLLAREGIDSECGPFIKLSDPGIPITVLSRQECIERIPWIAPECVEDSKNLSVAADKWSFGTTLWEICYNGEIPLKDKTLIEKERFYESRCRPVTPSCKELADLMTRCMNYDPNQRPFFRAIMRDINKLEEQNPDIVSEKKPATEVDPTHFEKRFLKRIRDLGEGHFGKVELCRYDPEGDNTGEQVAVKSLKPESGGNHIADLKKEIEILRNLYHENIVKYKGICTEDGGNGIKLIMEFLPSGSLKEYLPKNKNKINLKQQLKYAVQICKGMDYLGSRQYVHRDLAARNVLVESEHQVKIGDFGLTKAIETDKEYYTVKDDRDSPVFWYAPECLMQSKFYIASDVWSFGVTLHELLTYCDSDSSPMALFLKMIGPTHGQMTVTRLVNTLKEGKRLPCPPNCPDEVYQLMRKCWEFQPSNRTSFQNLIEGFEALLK
T2 sequence (O60674 whole entry, the tested form may be a part): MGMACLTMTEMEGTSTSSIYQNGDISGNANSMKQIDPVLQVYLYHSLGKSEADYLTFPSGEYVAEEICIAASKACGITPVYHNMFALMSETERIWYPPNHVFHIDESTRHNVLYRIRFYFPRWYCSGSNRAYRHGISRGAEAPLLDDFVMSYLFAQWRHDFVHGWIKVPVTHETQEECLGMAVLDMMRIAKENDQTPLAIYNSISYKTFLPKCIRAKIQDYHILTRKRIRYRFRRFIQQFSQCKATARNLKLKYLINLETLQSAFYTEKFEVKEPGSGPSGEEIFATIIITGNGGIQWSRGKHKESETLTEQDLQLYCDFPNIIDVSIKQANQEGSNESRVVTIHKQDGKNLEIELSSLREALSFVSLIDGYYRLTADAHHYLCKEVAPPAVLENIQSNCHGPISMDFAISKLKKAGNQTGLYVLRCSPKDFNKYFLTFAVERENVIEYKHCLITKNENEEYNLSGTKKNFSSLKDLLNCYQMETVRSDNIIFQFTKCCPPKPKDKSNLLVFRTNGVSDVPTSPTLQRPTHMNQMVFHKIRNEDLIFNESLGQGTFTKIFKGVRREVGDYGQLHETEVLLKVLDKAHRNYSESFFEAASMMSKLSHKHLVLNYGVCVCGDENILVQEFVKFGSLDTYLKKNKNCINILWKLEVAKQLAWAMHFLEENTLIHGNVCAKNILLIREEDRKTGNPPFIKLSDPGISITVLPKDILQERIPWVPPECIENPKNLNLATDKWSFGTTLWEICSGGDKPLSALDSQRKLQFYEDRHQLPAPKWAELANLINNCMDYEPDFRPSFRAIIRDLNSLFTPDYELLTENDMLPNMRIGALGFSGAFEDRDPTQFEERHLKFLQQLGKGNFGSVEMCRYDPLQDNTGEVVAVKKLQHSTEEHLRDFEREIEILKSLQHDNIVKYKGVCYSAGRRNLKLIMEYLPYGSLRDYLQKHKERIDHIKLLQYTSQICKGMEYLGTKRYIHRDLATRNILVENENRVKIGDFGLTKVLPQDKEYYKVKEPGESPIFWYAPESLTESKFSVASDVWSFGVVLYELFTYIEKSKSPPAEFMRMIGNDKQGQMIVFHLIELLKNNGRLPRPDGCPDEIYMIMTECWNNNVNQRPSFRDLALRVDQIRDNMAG
Chain of Non-receptor tyrosine-protein kinase TYK2 (P29597 whole entry, the tested form may be a part): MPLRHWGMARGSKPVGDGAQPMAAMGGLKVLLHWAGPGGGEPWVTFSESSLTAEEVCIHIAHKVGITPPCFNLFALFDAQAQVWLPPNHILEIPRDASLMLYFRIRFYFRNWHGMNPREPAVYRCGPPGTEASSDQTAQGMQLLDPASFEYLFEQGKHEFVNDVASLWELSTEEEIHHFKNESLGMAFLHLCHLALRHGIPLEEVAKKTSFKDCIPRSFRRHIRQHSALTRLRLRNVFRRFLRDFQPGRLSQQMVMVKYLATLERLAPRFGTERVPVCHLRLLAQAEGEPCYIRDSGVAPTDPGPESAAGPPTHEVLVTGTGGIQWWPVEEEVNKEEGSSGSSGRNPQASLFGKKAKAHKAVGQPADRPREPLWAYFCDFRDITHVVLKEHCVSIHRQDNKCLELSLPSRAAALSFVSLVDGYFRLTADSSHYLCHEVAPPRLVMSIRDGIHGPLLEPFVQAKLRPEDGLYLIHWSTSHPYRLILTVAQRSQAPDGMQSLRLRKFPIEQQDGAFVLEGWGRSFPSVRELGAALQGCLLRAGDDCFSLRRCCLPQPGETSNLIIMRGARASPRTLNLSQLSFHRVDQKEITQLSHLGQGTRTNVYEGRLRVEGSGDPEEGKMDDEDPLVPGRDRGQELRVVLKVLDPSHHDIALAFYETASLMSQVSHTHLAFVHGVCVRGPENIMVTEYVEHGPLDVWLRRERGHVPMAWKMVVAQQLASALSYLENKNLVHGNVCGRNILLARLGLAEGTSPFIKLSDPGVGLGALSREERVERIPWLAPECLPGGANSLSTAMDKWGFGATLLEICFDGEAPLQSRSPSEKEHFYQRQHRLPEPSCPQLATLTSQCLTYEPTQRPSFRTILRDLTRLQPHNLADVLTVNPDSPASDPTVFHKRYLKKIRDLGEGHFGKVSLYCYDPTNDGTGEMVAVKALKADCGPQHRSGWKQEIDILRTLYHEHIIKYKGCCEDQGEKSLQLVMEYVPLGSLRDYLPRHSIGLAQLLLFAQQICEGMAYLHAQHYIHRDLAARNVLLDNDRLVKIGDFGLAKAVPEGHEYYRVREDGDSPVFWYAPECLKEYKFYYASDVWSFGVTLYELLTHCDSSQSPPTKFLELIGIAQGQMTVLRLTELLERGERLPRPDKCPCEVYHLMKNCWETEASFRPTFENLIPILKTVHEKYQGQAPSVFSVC
Chain of Aurora kinase B (Q96GD4 whole entry, the tested form may be a part): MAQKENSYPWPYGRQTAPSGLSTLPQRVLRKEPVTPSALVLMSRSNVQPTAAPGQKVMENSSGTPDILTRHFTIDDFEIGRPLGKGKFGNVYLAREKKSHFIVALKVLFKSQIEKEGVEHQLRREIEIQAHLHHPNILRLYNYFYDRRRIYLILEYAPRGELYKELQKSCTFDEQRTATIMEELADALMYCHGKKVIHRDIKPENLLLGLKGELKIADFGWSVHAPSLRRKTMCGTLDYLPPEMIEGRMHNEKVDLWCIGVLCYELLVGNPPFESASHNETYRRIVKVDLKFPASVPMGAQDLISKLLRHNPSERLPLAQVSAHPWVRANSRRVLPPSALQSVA

As usually defined, the IC50 is the concentration needed to halve the response being measured. For the compound `COc1ccc(-c2nc3c(NCC4CCNCC4)ccnc3[nH]2)cc1`, the IC50 in [1], in [2] and in experiment [3] was > 30000 nM each time.

In the case of `COc1ccc(-c2nc3c(NCC4CCN(C)CC4)c(Cl)cnc3[nH]2)c(C)c1`, the IC50 in [1] worked out at 36 nM; in experiment [2], 2700 nM; in [3] it was 6600 nM. In experiment [4], the Ratio IC50 was found to be 75.

Consider `CNc1c(Cl)cnc2[nH]c(-c3ccc(OC)cc3)nc12`, for which the IC50 in experiment [1], in experiment [2] and in [3] was > 30000 nM in each case.

As to `COc1ccc(-c2nc3c(NCC4CCNCC4)c(Cl)cnc3[nH]2)c(F)c1`, the IC50 in experiment [5] amounted to 34 nM; in experiment [1], 106 nM; in [2] it was 11800 nM; in experiment [3], 6900 nM. Moreover, the Ratio IC50 in experiment [4] came out at 110.

For the compound `COc1ccc(-c2nc3c(NCC4CCN(C)CC4)c(C(N)=O)cnc3[nH]2)cc1`, the IC50 in experiment [1] was determined as 977 nM; in experiment [2], 10300 nM; in [3], 4500 nM. In addition, in experiment [4], the Ratio IC50 stood at 10.

As to `COc1ccc(F)c(-c2nc3c(NCC4CCN(C)CC4)c(Cl)cnc3[nH]2)c1`, the IC50 is 275 nM in experiment [1], > 30000 nM in experiment [2] and > 30000 nM in [3]. Moreover, in experiment [4], the Ratio IC50 was > 109.

As for `COc1ccc(-c2nc3c(NCC4CCN(C)CC4)c(Cl)cnc3[nH]2)cc1`, the IC50 in experiment [1] was 317 nM; in experiment [2], 9620 nM; in [3] it was > 30000 nM. In experiment [4], the Ratio IC50 came to 30.

For `COc1ccc(-c2nc3c(NCC4CCCNC4)c(Cl)cnc3[nH]2)cc1` (stereo not given), the IC50 in experiment [1] was determined as 138 nM; in [2] it was 3040 nM; in experiment [3], 5750 nM. Besides, the Ratio IC50 in [4] is 22.

Take `COc1ccc(-c2nc3c(NCCO)c(Cl)cnc3[nH]2)cc1`: the IC50 in experiment [1] was 5230 nM; in experiment [2] it was > 30000 nM; in experiment [3], > 30000 nM. In experiment [4], the Ratio IC50 turned out to be 2.

For the compound `COc1ccc(-c2nc3c(NCC4CCNCC4)c(Cl)cnc3[nH]2)cc1`, the IC50 in experiment [5] is 29 nM; in experiment [1], 17 nM; in experiment [2] it was 1450 nM; in experiment [3], 1130 nM. Also, the Ratio IC50 in experiment [4] is 85.

As to `COc1ccc(-c2nc3c(NC4CCN(C(C)=O)CC4)c(Cl)cnc3[nH]2)cc1`, the IC50 in [1], in [2] and in experiment [3] was > 30000 nM throughout.

As for `Cc1cc(Nc2nc(N[C@@H](C)c3ncc(F)cn3)ncc2Cl)[nH]n1`, the inhibition entry in experiment [6] and in [7] was “Active” each time.

Take `COc1ccc(-c2nc3c(OCC4CCNCC4)c(Cl)cnc3[nH]2)cc1`: the IC50 is 177 nM in experiment [1], 10100 nM in [2] and 2780 nM in experiment [3]. Moreover, in [4], the Ratio IC50 amounted to 57.

For the compound `COc1ccc(-c2nc3c(NCC4CCNCC4)c(Cl)cnc3[nH]2)c(C)c1`, the IC50 came out at 37 nM in [5], 9 nM in experiment [1], 2890 nM in experiment [2] and 1540 nM in [3]. For the same compound, the Ratio IC50 in experiment [4] stood at 314.

`COc1ccc(-c2nc3c(NCC4CCN(C)CC4)c(Cl)cnc3[nH]2)cc1OC`: the IC50 in experiment [1] is 73 nM; in experiment [2], 9900 nM; in experiment [3], > 30000 nM. For the same compound, in [4], the Ratio IC50 was 137.

Consider `COCCNc1c(Cl)cnc2[nH]c(-c3ccc(OC)cc3)nc12`, for which the figures for the IC50 in experiment [1], in [2] and in experiment [3] were 2100 nM, > 30000 nM and > 30000 nM, respectively. Also, the Ratio IC50 in experiment [4] is > 14.

For the compound `CN1CCC(CNc2c(Cl)cnc3[nH]c(-c4ccc(S(C)(=O)=O)cc4)nc23)CC1`, the results for the IC50 in [1], in experiment [2] and in experiment [3] were 356 nM, 2780 nM and 27600 nM, respectively. Further, the Ratio IC50 in experiment [4] came to 8.

In the case of `COc1ccc(-c2nc3c(NC4CCN(C)CC4)c(Cl)cnc3[nH]2)cc1`, the values for the half-inhibitory concentration (IC50) in experiment [1], in [2] and in experiment [3] were 561 nM, 14900 nM and 16900 nM, respectively. Also, the Ratio IC50 in experiment [4] turned out to be 27.

On to `COc1ccc(-c2nc3c(NCC4CCNCC4)c(Cl)cnc3[nH]2)cc1OC`, for which the IC50 stood at 87 nM in experiment [5]; 1280 nM in experiment [8]; 4.9 nM in experiment [1]; 57 nM in experiment [9]; 2270 nM in experiment [2]; 1200 nM in [3]. Moreover, in experiment [10], the IC50 turned out to be 16 nM. Moreover, the Ratio IC50 in experiment [4] is 463.

As for `COc1cccc(-c2nc3c(NCC4CCN(C)CC4)c(Cl)cnc3[nH]2)c1`, the 50% inhibitory concentration (IC50) in [1] is 274 nM; in experiment [2], 16200 nM; in experiment [3], > 30000 nM. Besides, the Ratio IC50 in experiment [4] is 59.

In the case of `COc1ccccc1-c1nc2c(NCC3CCN(C)CC3)c(Cl)cnc2[nH]1`, the IC50 in experiment [1] was 12200 nM; in experiment [2], > 30000 nM; in [3] it was > 30000 nM. Also, the Ratio IC50 in experiment [4] amounted to 2.

As for `COc1ccc(-c2nc3c(NCC4CCN(C)CC4)c(C#N)cnc3[nH]2)cc1`, the IC50 in experiment [1] was 4510 nM; in [2], > 30000 nM; in experiment [3] it was > 30000 nM. Moreover, in experiment [4], the Ratio IC50 is > 6.

Regarding `COc1ccc(-c2nc3c(NCC4CCNC4)c(Cl)cnc3[nH]2)cc1` (stereo not given), the IC50 in experiment [1] is 199 nM; in experiment [2] it was 13900 nM; in experiment [3], > 22000 nM. In experiment [4], the Ratio IC50 came out at 70.

Regarding `CN1CCC(CNc2c(Cl)cnc3[nH]c(-c4cccc(F)c4)nc23)CC1`, the IC50 in [1] was 832 nM; in experiment [2], 16200 nM; in experiment [3], > 30000 nM. The Ratio IC50 in experiment [4] is 19.

As for `COc1ccc(F)c(-c2nc3c(NCC4CCNCC4)c(Cl)cnc3[nH]2)c1`, the IC50 in experiment [5] amounted to 76 nM; in experiment [8], 11400 nM; in experiment [1], 49 nM; in experiment [9] it was 76 nM; in experiment [2], 13100 nM; in experiment [3] it was 6140 nM. The IC50 in [10] came to 157 nM. For the same compound, the Ratio IC50 in experiment [4] came to 267.

Turning to `COc1ccc(-c2nc3c(N(C)CC4CCNCC4)c(Cl)cnc3[nH]2)cc1`, the IC50 in experiment [1] was 872 nM; in experiment [2] it was > 30000 nM; in [3], > 30000 nM. Besides, in experiment [4], the Ratio IC50 is > 34.

`COc1ccc(-c2nc3c(NCC4CCN(C)CC4)c(Br)cnc3[nH]2)cc1`: the values for the IC50 in experiment [1] and in [3] were 177 nM and 19200 nM, respectively.

Consider `CN1CCC(CNc2c(Cl)cnc3[nH]c(-c4cccc(S(C)(=O)=O)c4)nc23)CC1`, for which the IC50 in experiment [1] was 4910 nM; in experiment [2], > 30000 nM; in experiment [3], > 30000 nM. In addition, the Ratio IC50 in experiment [4] was > 6.

On to `COc1cc(F)c(-c2nc3c(NCC4CCNCC4)c(Cl)cnc3[nH]2)cc1F`, for which the IC50 in experiment [5] is 71 nM; in [1] it was 173 nM; in experiment [2] it was > 17000 nM; in experiment [3] it was 7470 nM. Moreover, the Ratio IC50 in [4] was > 99.

With `COCCN1CCC(CNc2c(Cl)cnc3[nH]c(-c4ccc(OC)cc4)nc23)CC1`, the IC50 in [1] is 801 nM; in experiment [2] it was > 22000 nM; in [3], > 30000 nM. Further, the Ratio IC50 in experiment [4] is > 28.
